Source: patent publication US20120088803A1, “CONTROL AGENT FOR SOFT ROT AND CONTROL METHOD FOR THE SAME” (Ishihara Sangyo Kaisha, Ltd, priority 2009, published 2012)

Tested on: Erwinia carotovora (potato Erwinia carotovora)
Assay: Test for growth inhibition of potato Erwinia carotovora (PSA medium plate)
Assay type: cell-based
Conditions: for Growing state of Erwinia carotovora (formed colonies): PSA medium, 25 degrees C., 4 days, two plates per cell
Experimental: Reference test example: Test for growth inhibition of potato Erwinia carotovora
A test for growth inhibition of Erwinia carotovora in the case of direct application of the control agent to Erwinia carotovora was performed. To previously melted PSA medium (55 degrees C.), a predetermined amount of a pesticide 3-chloro-N-(3-chloro-5-trifluoromethyl-2-pyridyl)-alpha,alpha,alpha-trifluoro-2,6-dinit ro-p-toluidine (fluazinam, Frowncide SC (trade name), manufactured by Ishihara Sangyo Kaisha, Ltd.), ethaboxam wettable powder (Ethaboxam, Gardian (trade name), manufactured by LG Chemical), or streptomycin (Mycin wettable powder (trade name), manufactured by Hokko Chemical Industry Co., Ltd.) and a suspension of Erwinia carotovora (potato Erwinia carotovora) were added and the resulting mixture was stirred well, and then, poured in a plate. Then, the plate was cultured at 25 degrees C. for 4 days, and the growing state of Erwinia carotovora was examined. Thereafter, the formed colonies were examined according to the following three criteria. • +: Equal to the colonies of the untreated group • Plus or minus: Apparently less than the colonies of the untreated group • −: Almost no colonies

Compound: CCNc1nc(CC)c(C(=O)NC(C#N)c2cccs2)s1 (stereo not shown) [Ethaboxam WP, ethaboxam]
- Growing state of Erwinia carotovora (formed colonies) (Active ingredient concentration 100 ppm): +, +
- Growing state of Erwinia carotovora (formed colonies) (Active ingredient concentration 500 ppm): +, +
- Growing state of Erwinia carotovora (formed colonies) (Active ingredient concentration 1000 ppm): +, +
- Growth inhibition of Erwinia carotovora (in words) (active ingredient concentration of 1000 ppm, direct application): did not inhibit the growth
